In US11358931B2, “Selective androgen receptor modulators (SARMs) and uses thereof” (priority 2007, dated 2022):

Tests used:
hPR-B = biological target: T1, hPR-B (Homo sapiens, UniProt P06401); test: Co-transfection assay, other nuclear receptors: hPR-B; assay type: cell-based
T1 construct: expressed in transfected cells
T1 sequence (P06401 1-933): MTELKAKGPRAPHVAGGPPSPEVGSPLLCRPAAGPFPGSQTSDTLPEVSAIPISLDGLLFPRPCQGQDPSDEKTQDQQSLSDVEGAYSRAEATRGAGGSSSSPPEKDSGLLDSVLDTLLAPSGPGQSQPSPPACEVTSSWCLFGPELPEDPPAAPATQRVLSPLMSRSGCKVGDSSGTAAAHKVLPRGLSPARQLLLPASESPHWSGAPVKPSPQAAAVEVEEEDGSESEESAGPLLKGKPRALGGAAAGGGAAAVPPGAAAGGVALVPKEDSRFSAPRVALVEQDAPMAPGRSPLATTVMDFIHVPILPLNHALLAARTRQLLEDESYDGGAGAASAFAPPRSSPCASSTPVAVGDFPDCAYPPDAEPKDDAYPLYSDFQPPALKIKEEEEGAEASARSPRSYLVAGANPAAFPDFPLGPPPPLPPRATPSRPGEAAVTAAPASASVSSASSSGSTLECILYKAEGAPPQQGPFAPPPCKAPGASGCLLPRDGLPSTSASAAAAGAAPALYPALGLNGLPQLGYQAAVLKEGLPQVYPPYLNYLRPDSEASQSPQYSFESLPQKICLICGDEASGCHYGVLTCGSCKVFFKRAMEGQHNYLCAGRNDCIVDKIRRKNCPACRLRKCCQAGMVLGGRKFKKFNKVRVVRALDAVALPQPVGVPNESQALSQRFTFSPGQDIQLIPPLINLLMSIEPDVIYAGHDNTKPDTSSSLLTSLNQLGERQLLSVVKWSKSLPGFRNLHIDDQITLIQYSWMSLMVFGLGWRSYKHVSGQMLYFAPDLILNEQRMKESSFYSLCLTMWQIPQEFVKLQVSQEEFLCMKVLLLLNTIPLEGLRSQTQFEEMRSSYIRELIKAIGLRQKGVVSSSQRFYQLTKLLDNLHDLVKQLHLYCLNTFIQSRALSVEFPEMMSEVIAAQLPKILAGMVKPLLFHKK
Source text: An exemplary co-transfection assay is the luciferase reporter assay (Evans, Science 240: 889-895 (1988), Berger et al., J Steroid Biochem Mol Biol 41: 733-738 (1992)) can be used to establish the ability of a compound of formulae I, II or III to activate (agonist activity) or repress (antagonist activity) the ability of the human androgen receptor (hAR) to induce gene expression. A human cell line containing endogenously expressed hAR (e.g., MDA-MB-453 cells, derived from a human mammary carcinoma, American Tissue Type Culture Collection [ATCC] HTB 131) can be transfected with an androgen responsive luciferase reporter plasmid to measure the level of cross-reactivity of the compound on other nuclear receptors (such as the glucocorticoid receptor (GR), estrogen receptor (ER), mineralocorticoid receptor (MR), progesterone receptor (PR), retinoid receptor (RAR), retinoid X receptor (RXR), peroxisome proliferator activating receptors alpha (PPARα), gamma (PPARγ) and delta (PPARδ), liver X receptor (LXR), farnesyl X receptor (FXR) and the pregnane X receptor (PXR)). In the assay, luciferase reporter plasmids containing the cDNA for firefly luciferase (LUC) under the control of a conditional promoter containing hormone response elements recognized by the appropriate nuclear receptor are co-transfected into cells with the nuclear receptor expression plasmid. […]

[1] = 14-day oral toxicity study in Sprague Dawley rats; assay type: in vivo, rat; conditions: Sprague-Dawley, rat, in vivo; SD rats, oral gavage once daily for 14 days; read-out: No-observed-adverse-effect level (NOAEL)
Procedure: (§1) A Sprague Dawley Rat model was used to study oral toxicity and toxicokinetics. Animals were assigned to groups by a stratified randomization scheme designed to achieve similar group mean body weights and the groups were randomly assigned to a dosing to provide control of bias.
(§2) All animals were dosed via oral gavage once daily for 14 days. The animals were evaluated for changes in clinical signs (mortality/morbidity observations, twice daily), cage side observations (general appearance and behavior), food consumption (quantitatively measured by weighing), body weights, clinical pathology indices including serum chemistry, hematology, coagulation and urinalysis, and other parameters. Blood samples were collected for toxicokinetics analysis from Groups 6-10 at various time points on Days 1 and 14 (Group 6 4 hours post dose; Groups 7-10 at 1, 4 and 12 hours or 2, 8 and 24 hours). The animals were fasted for at least 8 hours prior to blood collections for serum chemistry and urine collection. Serum chemistry parameters tested included alanine aminotransferase, total protein, aspartate aminotransferase, albumin, alkaline phosphatase, globulin, gamma-glutamyl-transferase, albumin/globulin ratio, lactate dehydrogenase, glucose, total bilirubin, cholesterol, urea nitrogen, triglycerides, creatinine, sodium, calcium, potassium, phosphorus and chloride. Hematology parameters analyzed included red blood cell count, reticulocyte count, hemoglobin concentration, red blood cell distribution width, mean corpuscular volume, mean platelet volume, mean corpuscular hemoglobin concentration, white blood cell count and differentials and mean corpuscular hemoglobin. Urinalysis parameters included color/character, ketones, specific gravity, bilirubin, pH, occult blood, protein, glucose and microscopics. Main study animals were euthanized on Day 15. At termination, a full necropsy was conducted and all tissues were collected, preserved, processes and examined microscopically from Groups 1 and 5, and target organs (liver and kidney) from Groups 2-4, by a veterinary pathologist certified by the American College of Veterinary Pathologists.
(§3) Control vehicle included Peg-400 (Sigma P-3265), Tween 80 (Sigma P-8074) and PVP-K30 (polyvinyl pyrrolidone or povidone K-30, Spectrum PN P1454) at a ratio of 90:5:5, w/w/w. Appropriate amounts of Compound 102 were added to the control vehicle to produce homogeneous dosing solutions/suspensions.

Sprague-Dawley rats = test: 14-day oral toxicity study in Sprague Dawley rats; assay type: in vivo, rat
Procedure: as §1, §2, §3

## N#Cc1ccc(N2CCC[C@@H]2[C@@H](O)C(F)(F)F)cc1C(F)(F)F [Compound 102, R,R-4-(2-(1-Hydroxyl-2,2,2-trifluoroethyl)-pyrrolidinyl)-2-trifluoromethyl-benzonitrile]
hPR-B
  IC50: 280 nM
hPR-B; progesterone-induced activation
  antagonism of progesterone-induced activation of hPR-B (efficacy): 74%
[1]
  NOAEL at 14 days: 700 mg/kg/day
Sprague-Dawley rats; 10, 100, 300 or 700 mg/kg/day, 14 days
  morbidity / early death: not associated with test article-related morbidity or early death
Sprague-Dawley rats; 10-700 mg/kg/day
  macroscopic or microscopic changes (postmortem): no macroscopic or microscopic changes
  urinalysis parameters: no alterations
Sprague-Dawley rats; both sexes, not correlated with hepatocellular size or liver pathology
  liver weight: Dose-dependent liver weight increases
Sprague-Dawley rats; female animals, all dose levels
  food consumption: statistically significant increase in food consumption
Sprague-Dawley rats; female rats dosed at ≥10 mg/kg/day
  alkaline phosphatase values and phosphorus concentrations: minimally higher
Sprague-Dawley rats; female rats ≥10 mg/kg/day
  reticulocyte counts and red cell distribution width: higher reticulocyte counts and red cell distribution width
Sprague-Dawley rats; females ≥100 mg/kg/day, males 10 and 700 mg/kg/day
  platelet counts: increased with statistical significance
Sprague-Dawley rats; male and female animals, 300 and 700 mg/kg/day
  prothrombin time: minimal prolongation
Sprague-Dawley rats; male and female animals, versus control
  body weight gain: increased weight gain compared to control animals
Sprague-Dawley rats; male rats ≥100 mg/kg/day, female rats ≥300 mg/kg/day
  triglyceride concentrations: minimally lower
Sprague-Dawley rats; male rats ≥300 mg/kg/day, female rats ≥100 mg/kg/day
  potassium levels: minimally higher
Sprague-Dawley rats; particularly female animals at ≥100 mg/kg/day
  clinical observations: increased incidence and frequency in rough hair coat and nasal discharge
